Common to all, as to assay type: physicochemical
A short description of data set [1]: Water activity analysis (slurries) of sesquifumaric acid salt forms. The note with it: for Result (solid form after water activity slurry): ambient, 7 days; for Form conversion in water activity slurry: 0.22 aw (and up).
Data set [2] can be described thus: Concentration in water to achieve pH=7.
Data set [3] can be described thus: Physical stability analysis of sesquifumaric acid salt forms (drying, heating).

With `CC(C)N(C(=O)c1cc(F)ccc1Oc1cncnc1N1CC2(CCN(CC3CCC(NS(C)(=O)=O)CC3)CC2)C1)C(C)C.CC(C)N(C(=O)c1cc(F)ccc1Oc1cncnc1N1CC2(CCN(CC3CCC(NS(C)(=O)=O)CC3)CC2)C1)C(C)C.O=C(O)/C=C/C(=O)O.O=C(O)/C=C/C(=O)O.O=C(O)/C=C/C(=O)O` (centres unmarked), the “Result (solid form after water activity slurry)” value was “Form A” in data set [1] (H2O/ACN, water activity 0.38 (2 vol % H2O)); “Form A” in data set [1] (H2O/ACN, water activity 0.60 (4 vol % H2O)); “Form A” in data set [1] (H2O/IPA, water activity 0.50 (6 vol % H2O)); “Form A” in data set [1] (H2O/IPA, water activity 0.70 (11 vol % H2O)); “Form A” in data set [1] (H2O/IPA, water activity 0.96 (50 vol % H2O)); “Form A” in data set [1] (H2O/acetone, water activity 0.22 (1 vol % H2O)). Further, the “Result (solid form after water activity slurry)” value is listed as “Form A” in data set [1] (H2O/acetone, water activity 0.44 (3 vol % H2O)); “Form A” in data set [1] (H2O/acetone, water activity 0.80 (18 vol % H2O)); “Form A” in data set [1] (H2O/acetone, water activity 0.91 (50 vol % H2O)).

Turning to `CCN(C(=O)c1cc(F)ccc1Oc1cncnc1N1CC2(CCN(CC3CCC(NS(=O)(=O)CC)CC3)CC2)C1)C(C)C` (centres unmarked) [Example 254, N-Ethyl-2-((4-(7-(((1r,4r)-4-(ethylsulfonamido)cyclohexyl)methyl)-2,7-diazaspiro[3.5]nonan-2-yl)pyrimidin-5-yl)oxy)-5-fluoro-N-isopropylbenzamide], in data set [2], the “Concentration in water to achieve pH=7” value turned out to be 7.6 mg/mL.

Turning to `CCN(C(=O)c1cc(F)ccc1Oc1cncnc1N1CC2(CCN(CC3CCC(NS(=O)(=O)CC)CC3)CC2)C1)C(C)C.CCN(C(=O)c1cc(F)ccc1Oc1cncnc1N1CC2(CCN(CC3CCC(NS(=O)(=O)CC)CC3)CC2)C1)C(C)C.O=C(O)/C=C/C(=O)O.O=C(O)/C=C/C(=O)O.O=C(O)/C=C/C(=O)O` (centres unmarked) [Example 255, N-Ethyl-2-((4-(7-(((1r,4r)-4-(ethylsulfonamido)cyclohexyl)methyl)-2,7-diazaspiro[3.5]nonan-2-yl)pyrimidin-5-yl)oxy)-5-fluoro-N-isopropylbenzamide Sesquifumaric Acid Salt], the “Concentration in water to achieve pH=7” value in data set [2] is given as 224.7 mg/mL.

In the case of `CCN(C(=O)c1cc(F)ccc1Oc1cncnc1N1CC2(CCN(CC3CCC(NS(=O)(=O)CC)CC3)CC2)C1)C(C)C.CS(=O)(=O)O.CS(=O)(=O)O` (centres unmarked) [Example 256, N-Ethyl-2-((4-(7-(((1r,4r)-4-(ethylsulfonamido)cyclohexyl)methyl)-2,7-diazaspiro[3.5]nonan-2-yl)pyrimidin-5-yl)oxy)-5-fluoro-N-isopropylbenzamide Bis-Methanesulfonic Acid Salt], the “Concentration in water to achieve pH=7” value in data set [2] worked out at 261 mg/mL.

For the molecule `CCN(C(=O)c1cc(F)ccc1Oc1cncnc1N1CC2(CCN(CC3CCC(NS(=O)(=O)CC)CC3)CC2)C1)C(C)C.Cl.Cl` (centres unmarked) [Example 257, N-Ethyl-2-((4-(7-(((1r,4r)-4-(ethylsulfonamido)cyclohexyl)methyl)-2,7-diazaspiro[3.5]nonan-2-yl)pyrimidin-5-yl)oxy)-5-fluoro-N-isopropylbenzamide Bis-Hydrochloric Acid Salt], the “Concentration in water to achieve pH=7” value in data set [2] was 317.6 mg/mL.

As to `CC(C)N(C(=O)c1cc(F)ccc1Oc1cncnc1N1CC2(CCN(C[C@H]3CC[C@H](NS(C)(=O)=O)CC3)CC2)C1)C(C)C.CC(C)N(C(=O)c1cc(F)ccc1Oc1cncnc1N1CC2(CCN(C[C@H]3CC[C@H](NS(C)(=O)=O)CC3)CC2)C1)C(C)C.O=C(O)/C=C/C(=O)O.O=C(O)/C=C/C(=O)O.O=C(O)/C=C/C(=O)O` [Form B, 5-fluoro-N,N-diisopropyl-2-((4-(7-(((1r,4r)-4-(methylsulfonamido)cyclohexyl)methyl)-2,7-diazaspiro[3.5]nonan-2-yl)pyrimidin-5-yl)oxy)benzamide sesquifumaric acid salt], in data set [3], the “Form change after 45° C. vacuum oven” value is reported as “converted to Form D”. The “Form conversion in water activity slurry” value in data set [1] is reported as “Converted to Form A”.

Consider `CC(C)N(C(=O)c1cc(F)ccc1Oc1cncnc1N1CC2(CCN(C[C@H]3CC[C@H](NS(C)(=O)=O)CC3)CC2)C1)C(C)C.CC(C)N(C(=O)c1cc(F)ccc1Oc1cncnc1N1CC2(CCN(C[C@H]3CC[C@H](NS(C)(=O)=O)CC3)CC2)C1)C(C)C.O=C(O)/C=C/C(=O)O.O=C(O)/C=C/C(=O)O.O=C(O)/C=C/C(=O)O` [Form D, 5-fluoro-N,N-diisopropyl-2-((4-(7-(((1r,4r)-4-(methylsulfonamido)cyclohexyl)methyl)-2,7-diazaspiro[3.5]nonan-2-yl)pyrimidin-5-yl)oxy)benzamide sesquifumaric acid salt], for which the “Result (solid form after physical stability stress)” value in data set [3] (75% RH, 2 days) is listed as “Form D”. In data set [1], the “Form conversion in water activity slurry” value is given as “Converted to Form A”.

In the case of `CC(C)N(C(=O)c1cc(F)ccc1Oc1cncnc1N1CC2(CCN(C[C@H]3CC[C@H](NS(C)(=O)=O)CC3)CC2)C1)C(C)C.CC(C)N(C(=O)c1cc(F)ccc1Oc1cncnc1N1CC2(CCN(C[C@H]3CC[C@H](NS(C)(=O)=O)CC3)CC2)C1)C(C)C.O=C(O)/C=C/C(=O)O.O=C(O)/C=C/C(=O)O.O=C(O)/C=C/C(=O)O` [Form E, 5-fluoro-N,N-diisopropyl-2-((4-(7-(((1r,4r)-4-(methylsulfonamido)cyclohexyl)methyl)-2,7-diazaspiro[3.5]nonan-2-yl)pyrimidin-5-yl)oxy)benzamide sesquifumaric acid salt], the “Form change after 45° C. vacuum oven” value in data set [3] was “No changes observed in XRPD”. For the same molecule, the “Result (solid form after physical stability stress)” value in data set [3] (45° C. vacuum, 1 day) is recorded as “Form E”.

Consider `CC(C)N(C(=O)c1cc(F)ccc1Oc1cncnc1N1CC2(CCN(C[C@H]3CC[C@H](NS(C)(=O)=O)CC3)CC2)C1)C(C)C.CC(C)N(C(=O)c1cc(F)ccc1Oc1cncnc1N1CC2(CCN(C[C@H]3CC[C@H](NS(C)(=O)=O)CC3)CC2)C1)C(C)C.O=C(O)/C=C/C(=O)O.O=C(O)/C=C/C(=O)O.O=C(O)/C=C/C(=O)O` [Form F, 5-fluoro-N,N-diisopropyl-2-((4-(7-(((1r,4r)-4-(methylsulfonamido)cyclohexyl)methyl)-2,7-diazaspiro[3.5]nonan-2-yl)pyrimidin-5-yl)oxy)benzamide sesquifumaric acid salt], for which the “Form conversion when slurried in ACN/water mixture” value in data set [1] (slurried in ACN/water mixture) is “Conversion to Form A was observed”.

The values above are taken from patent US12312359B2 (Vitae Pharmaceuticals, LLC, priority 2016, dated 2025).
